In patent publication US9603896B2, “Peptide compounds and methods of production and use thereof” (priority 2012, dated 2017):
Like-named read-outs stand apart in the source and are kept apart here. Square brackets hold non-standard residues; d marks the D form. Ends that are not written are not given here. Peptide text beside a SMILES is read from it. AEEA = NCCOCCOCC(=O)O

Experiments:
[1] = tested on: Pseudomonas aeruginosa ATCC® 27853™; assay type: cell-based; conditions: for Effects of Peptide Compounds on Pseudomonas aeruginosa ATCC ® 27853 ™: Table 6, 5 × 10^3 CFU/ml unless italicized = 1 × 10^5 CFU/ml
Description: (§1) The three peptide compounds BCC01-5RMP (SEQ ID NO:21), BCC02-5RMP (SEQ ID NO:22), and BCC03-5RMP (SEQ ID NO:23) were assayed for in vitro bactericidal activity against Pseudomonas aeruginosa, Escherichia coli, Salmonella typhimurium, and Acinetobacter baumannii. […] The CFU remaining at the end of 60 to 180 minute incubation was determined, and the data plotted as a log reduction in CFU/ml.
(§2) Tables 4-6 show the results of various peptides and peptide compounds against P. aeruginosa and E. coli strains. Tables 4 and 5 show the results of an investigation of the effects of peptide or peptide compounds BCC03-5RMP (SEQ ID NO:23), BCC03-MP (SEQ ID NO:24) and BCC03-5R (SEQ ID NO:20) against P. aeruginosa ATCC® strain 27853™ and E. coli ATCC® strain 25922™ (American Type Culture Collection, Manassas, Va.). […] Table 6 compares the activity of several other compounds, including the “5R” versions of BCC01, i.e., SEQ ID NO:18 (which comprises SEQ ID NO:1 with five additional arginines), the “5R” version of BCC02 (i.e., SEQ ID NO:19, which comprises SEQ ID NO:2 with five additional arginines), and BCC03-5RMP (SEQ ID NO:23), and BCC03-MP (SEQ ID NO:24, i.e., without the five additional R residues). The data generally indicate the superiority of BCC03-5RMP (SEQ ID NO:23) against E. coli, and the superiority of the 5R or 5RMP versions of the peptide over the “AEEA only” peptide against P. aeruginosa.
For FIGS. 10-13, in vitro bactericidal assays were performed using a starting inoculum of 1×10^6 CFU/ml of the bacterial suspension. The CFU remaining at the end of the 60-180 minute incubation was determined, and the data was plotted as log reduction in CFU/ml.
In particular, each of the test peptides (CAP37 peptides 120-146WR, 120-146WH, and 95-122 (SEQ ID NOs: 30, 31, and 26, respectively)) was used at 25, 12.5, 6.25, and 3.12 μM. Gentamicin was used at 4 μg/ml. 1×10^6/ml Acinetobacter baumannii ATCC® BAA-747″ or Pseudomonas aeruginosa ATCC® 27853™ (American Type Culture Collection, Manassas, Va.) were incubated with the peptides, negative buffer control (tryptone saline), and positive control gentamicin at pH 5.5 or 7.2. A 60 minute incubation was used for Acinetobacter baumannii ATCC® BAA747™, while a 180 minute incubation was used for Pseudomonas aeruginosa ATCC® 27853™. 50 μl aliquots were plated out on agar plates and incubated overnight. Colony forming units were counted after overnight incubation and CFU/ml calculated.
For FIG. 14, 1×10^6/ml Pseudomonas aeruginosa ATCC® 27853™ were incubated with each of the test peptides (CAP37 peptides 120-146WR, 120-146WH, 120-146QR, 120-146QH, 120-146QR-5RMP, and 120-146QH-5RMP (SEQ ID NOs: 30, 31, 28, 29, 32, and 33, respectively)) at 150, 75, and 37.5 μg/ml, or negative buffer control (tryptone saline), for 180 minutes at pH 5.5. 50 μl aliquots were plated out on agar plates and incubated overnight. Colony forming units were counted after overnight incubation and CFU/ml calculated.

[2] = tested on: swine skin; assay: Swine full thickness excisional dermal wound model; assay type: in vivo; conditions: for Mean Wound Healing (%): topical 3 mg/ml, 0.20 ml per wound daily
Description: In this Example, peptide compounds of the presently disclosed and claimed inventive concept(s) were evaluated as to their activity on the dermal wound healing process in a clinically relevant swine full thickness excisional wound model. Three different peptide formulations (Group B, Peptide 95-122 (SEQ ID NO:26); Group C, Peptide 120-146WH (SEQ ID NO:31); and Group D, Peptide 120-146QH-5RMP (SEQ ID NO:33)) were each evaluated at the same concentration (3 mg/ml). Sterile saline served as the control (Group A).
Full thickness excisional wounds were induced on the dorsum of swine (N=3) using a 1.0 cm biopsy punch. Treatments were administered (0.20 ml) to each wound (N=6 wounds per group), and the wounds were dressed with standard occlusive dressing ([…]™, 3M Corporation, St. Paul, Minn.). Treatments were reapplied daily and dressings changed. Clinical wound healing observations and wound area (2 mm) measurements were performed on days 0, 3, 5, 7, 10, and 14 post-wounding. Wound area (2 mm) data were expressed as percentage (%) of wound healing. Animals were terminated on day 14 with wounds harvested and processed for histological evaluation. […] All peptide formulation treatment groups healed faster with greater rate of closure and re-epithelialization over time, as compared to the saline control (Group A).

[3] = tested on: E. coli ATCC® strain 25922™; assay type: cell-based, Escherichia coli; set-up: Effects of Peptide Compounds on Escherichia coli ATCC ® 25922 ™: unit not given here; conditions: Table 6, 5 × 10^3 CFU/ml unless italicized = 1 × 10^5 CFU/ml
Description: as §1, §2

[4] = wounds harvested day 14, 3 mg/ml topical

Compound | Effects of Peptide Compounds on Pseudomonas aeruginosa ATCC ® 27853 ™ ([1]; 6.25 μg/ml) | Effects of Peptide Compounds on Pseudomonas aeruginosa ATCC ® 27853 ™ ([1]; 12.5 μg/ml) | Effects of Peptide Compounds on Pseudomonas aeruginosa ATCC ® 27853 ™ ([1]; 25 μg/ml) | Effects of Peptide Compounds on Pseudomonas aeruginosa ATCC ® 27853 ™ ([1]; 50 μg/ml) | Effects of Peptide Compounds on Pseudomonas aeruginosa ATCC ® 27853 ™ ([1]; 100 μg/ml) | Effects of Peptide Compounds on Pseudomonas aeruginosa ATCC ® 27853 ™ ([1]; 200 μg/ml) | Effects of Peptide Compounds on Pseudomonas aeruginosa ATCC ® 27853 ™ ([1]; 400 μg/ml) | Effects of Peptide Compounds on Escherichia coli ATCC ® 25922 ™ ([3]; 12.5 μg/ml) | Effects of Peptide Compounds on Escherichia coli ATCC ® 25922 ™ ([3]; 25 μg/ml) | Effects of Peptide Compounds on Escherichia coli ATCC ® 25922 ™ ([3]; 50 μg/ml) | Effects of Peptide Compounds on Escherichia coli ATCC ® 25922 ™ ([3]; 100 μg/ml) | Effects of Peptide Compounds on Escherichia coli ATCC ® 25922 ™ ([3]; 200 μg/ml) | Effects of Peptide Compounds on Escherichia coli ATCC ® 25922 ™ ([3]; 400 μg/ml) | other results
CC(C)C[C@H](NC(=O)[C@H](CCCNC(=N)N)NC(=O)CNC(=O)CNC(=O)[C@H](CO)NC(=O)[C@H](Cc1c[nH]cn1)NC(=O)[C@H](CCC(N)=O)NC(=O)[C@H](CO)NC(=O)CNC(=O)[C@H](Cc1c[nH]c2ccccc12)NC(=O)CNC(=O)[C@H](C)NC(=O)[C@@H](NC(=O)[C@H](CCC(N)=O)NC(=O)[C@H](CS)NC(=O)[C@H](CCCNC(=N)N)NC(=O)[C@@H](NC(=O)CNC(=O)[C@H](CCCNC(=N)N)NC(=O)[C@H](CCCNC(=N)N)NC(=O)[C@H](CCCNC(=N)N)NC(=O)[C@H](CCCNC(=N)N)NC(=O)COCCOCCNC(=O)COCCOCCN)[C@@H](C)O)C(C)C)C(=O)N[C@@H](CO)C(=O)N[C@@H](CCCNC(=N)N)C(=O)N[C@@H](Cc1ccccc1)C(=O)N1CCC[C@H]1C(=O)N[C@@H](CCCNC(=N)N)C(=O)N[C@@H](Cc1ccccc1)C(=O)N[C@H](C(=O)N[C@@H](CC(N)=O)C(=O)N[C@H](C(=O)N[C@@H](CCCNC(=N)N)C(=O)O)C(C)C)C(C)C [120-146QH-5RMP] (H-[AEEA][AEEA]RRRRGTRCQVAGWGSQHSGGRLSRFPRFVNVR-OH) |  |  |  |  |  |  |  |  |  |  |  |  |  | reduction in CFU (FIG. 14) ([1]; pH 5.5, 180 minutes, 75 μg/ml): ~6 log; Mean Wound Healing (%) ([2]; Day 0): 0.0%; Mean Wound Healing (%) ([2]; Day 3): 22.5%; Mean Wound Healing (%) ([2]; Day 5): 34.1%; Mean Wound Healing (%) ([2]; Day 7): 64.1%; Mean Wound Healing (%) ([2]; Day 10): 93.7%; Mean Wound Healing (%) ([2]; Day 14): 98.0%; histology: epidermal resurfacing and maturation vs saline control ([2]; day 14 post-wounding): greater extent of epidermal resurfacing and maturation of the epidermis; dermal wound healing vs saline ([2]; topically at 3 mg/ml, over 14 days): accelerate dermal wound healing; Histopathology Results, Mean Angiogenesis [2, 4]: 1.3; Histopathology Results, Mean Epithelization [2, 4]: 4.0; Histopathology Results, Mean Granulation [2, 4]: 4.0; Histopathology Results, Mean Inflammation [2, 4]: 0.5
CC[C@H](C)[C@H](NC(=O)[C@H](CC(C)C)NC(=O)[C@H](C)NC(=O)CNC(=O)CNC(=O)[C@H](CS)NC(=O)[C@H](Cc1ccccc1)NC(=O)[C@H](Cc1c[nH]cn1)NC(=O)[C@H](CCCNC(=N)N)NC(=O)CNC(=O)[C@H](CCC(N)=O)NC(=O)[C@H](CC(N)=O)NC(=O)COCCOCCNC(=O)COCCOCCN)C(=O)N[C@@H](Cc1c[nH]cn1)C(=O)N[C@@H](C)C(=O)N[C@@H](CCCNC(=N)N)C(=O)N[C@@H](Cc1ccccc1)C(=O)N[C@H](C(=O)N[C@@H](CCSC)C(=O)N[C@H](C(=O)N[C@@H](C)C(=O)N[C@@H](C)C(=O)N[C@@H](CO)C(=O)N[C@@H](CO)C(=O)N[C@@H](Cc1ccccc1)C(=O)N[C@@H](CCC(N)=O)C(=O)O)[C@@H](C)O)C(C)C [BCC03-MP] (H-[AEEA][AEEA]NQGRHFCGGALIHARFVMTAASSFQ-OH; N-terminus and C-terminus assumed) | −38.2 | -45.6 | −27.3 | −2.9 | 44.0 | 74.4 | 92.8 | 21.8 | 27.2 | 24.6 | 27.5 | 46.0 | 58.2 | Effects of Peptide Compounds on Escherichia coli ATCC ® 25922 ™ ([3]; 6.25 μg/ml): 6.4
RRRRNQGRHFCGGALIHARFVMTAASCFQR (5-arginine peptide derivative of CAP37 peptide) [SEQ ID NO: 18 (Linear)] |  |  |  |  |  |  |  |  |  |  |  |  |  | Effects of Peptide Compounds on Pseudomonas aeruginosa ATCC ® 27853 ™ ([1]; 0.137 μg/ml): 25.4; Effects of Peptide Compounds on Pseudomonas aeruginosa ATCC ® 27853 ™ ([1]; 0.5475 μg/ml): 63.2; Effects of Peptide Compounds on Pseudomonas aeruginosa ATCC ® 27853 ™ ([1]; 2.19 μg/ml): 87.9; Effects of Peptide Compounds on Pseudomonas aeruginosa ATCC ® 27853 ™ ([1]; 8.76 μg/ml): 99.5; Effects of Peptide Compounds on Pseudomonas aeruginosa ATCC ® 27853 ™ ([1]; 87.6 μg/ml): 100.0; Effects of Peptide Compounds on Escherichia coli ATCC ® 25922 ™ ([3]; 43.8 μg/ml): 93.9; Effects of Peptide Compounds on Escherichia coli ATCC ® 25922 ™ ([3]; 87.6 μg/ml): 95.3; Effects of Peptide Compounds on Escherichia coli ATCC ® 25922 ™ ([3]; 175.2 μg/ml): 97.1; Effects of Peptide Compounds on Escherichia coli ATCC ® 25922 ™ ([3]; 262.8 μg/ml): 100.0
RRRRNQGRHFCGGALIHARFVMTAASCFQR (also: cyclized) [SEQ ID NO: 18 (Cyclized)] | 100.0 | 100.0 | 100.0 | 100.0 | 100.0 | 100.0 | 100.0 | 37.9 | 38.0 | 49.3 | 52.6 | 59.6 | 82.0 | Effects of Peptide Compounds on Pseudomonas aeruginosa ATCC ® 27853 ™ ([1]; 0.78 μg/ml): 99.6; Effects of Peptide Compounds on Pseudomonas aeruginosa ATCC ® 27853 ™ ([1]; 1.56 μg/ml): 98.4; Effects of Peptide Compounds on Pseudomonas aeruginosa ATCC ® 27853 ™ ([1]; 3.125 μg/ml): 100.0
